Data taken from patent publication US12180187B2, “1-phenyl-5-azinylpyrazolyl-3-oxyalkyl acids and their use for controlling unwanted plant growth” (BAYER AKTIENGESELLSCHAFT, priority 2019, dated 2024).

Experiments:
[1] = test system: DIGSA; test: Pre-emergence action against DIGSA, 1280 g/ha; assay type: in vivo, Digitaria sanguinalis; details: visual scoring after about 3 weeks vs untreated controls, 100% = plants have died, 0% = like control plants
In short: (§1)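 Weed seeds sown in sandy loam in pots, covered with soil; compound as WP or EC applied to soil surface as aqueous suspension/emulsion with 0.5% additive at 600 L/ha water. Greenhouse, good growth conditions; visual % damage vs untreated controls after about 3 weeks (100% = plants dead, 0% = like control).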

[2] = test system: ECHCG; test: Pre-emergence action against ECHCG, 1280 g/ha; assay type: in vivo, Echinochloa crus-galli; details: visual scoring after about 3 weeks vs untreated controls, 100% = plants have died, 0% = like control plants
In short: as §1

[3] = test system: LOLRI; test: Pre-emergence action against LOLRI, 1280 g/ha; assay type: in vivo, Lolium rigidum; details: visual scoring after about 3 weeks vs untreated controls, 100% = plants have died, 0% = like control plants
In short: as §1

[4] = test system: POAAN; test: Pre-emergence action against POAAN, 1280 g/ha; assay type: in vivo, Poa annua; details: visual scoring after about 3 weeks vs untreated controls, 100% = plants have died, 0% = like control plants
In short: as §1

[5] = test system: SETVI; test: Pre-emergence action against SETVI, 1280 g/ha; assay type: in vivo, Setaria viridis; details: visual scoring after about 3 weeks vs untreated controls, 100% = plants have died, 0% = like control plants
In short: as §1

[6] = test system: AMARE; test: Pre-emergence action against AMARE, 1280 g/ha; assay type: in vivo, Amaranthus retroflexus; details: scored visually after about 3 weeks vs untreated controls (100% = plants have died)
In short: as §1

[7] = test system: MATIN; test: Pre-emergence action against MATIN, 1280 g/ha; assay type: in vivo, Tripleurospermum inodorum (Matricaria inodora); details: scored visually after about 3 weeks vs untreated controls (100% = plants have died)
In short: as §1

[8] = test system: STEME; test: Pre-emergence action against STEME, 1280 g/ha; assay type: in vivo, Stellaria media; details: scored visually after about 3 weeks vs untreated controls (100% = plants have died)
In short: as §1

[9] = test system: VERPE; test: Pre-emergence action against VERPE, 1280 g/ha; assay type: in vivo, Veronica persica; details: scored visually after about 3 weeks vs untreated controls (100% = plants have died)
In short: as §1

[10] = test system: ALOMY; test: Post-emergence action against ALOMY, 1.28 kg/ha; assay type: in vivo, Alopecurus myosuroides; details: dosage 1280 g/ha, visual rating about 3 weeks after treatment vs untreated controls
In short: (§2)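 Weeds grown in sandy loam in a greenhouse were sprayed at the one-leaf stage, 2–3 weeks after sowing, with WP or EC formulations in water containing 0.5% additive at 600 L/ha. About 3 weeks later, damage was scored visually versus untreated controls (0% = like control, 100% = dead).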

[11] = test system: DIGSA; test: Post-emergence action against DIGSA, 1.28 kg/ha; assay type: in vivo, Digitaria sanguinalis; details: dosage 1280 g/ha, visual rating about 3 weeks after treatment vs untreated controls
In short: as §2

[12] = test system: ECHCG; test: Post-emergence action against ECHCG, 1.28 kg/ha; assay type: in vivo, Echinochloa crus-galli; details: dosage 1280 g/ha, visual rating about 3 weeks after treatment vs untreated controls
In short: as §2

[13] = test system: POAAN; test: Post-emergence action against POAAN, 1.28 kg/ha; assay type: in vivo, Poa annua; details: dosage 1280 g/ha, visual rating about 3 weeks after treatment vs untreated controls
In short: as §2

[14] = test system: SETVI; test: Post-emergence action against SETVI, 1.28 kg/ha; assay type: in vivo, Setaria viridis; details: dosage 1280 g/ha, visual rating about 3 weeks after treatment vs untreated controls
In short: as §2

[15] = test system: AMARE; test: Post-emergence action against AMARE, 1.28 kg/ha; assay type: in vivo, Amaranthus retroflexus; details: dosage 1280 g/ha, visual rating about 3 weeks after treatment vs untreated controls (100% = plants died)
In short: as §2

[16] = test system: KCHSC; test: Post-emergence action against KCHSC, 1.28 kg/ha; assay type: in vivo, Bassia scoparia; details: dosage 1280 g/ha, visual rating about 3 weeks after treatment vs untreated controls (100% = plants died)
Procedure: (§3) • a) Seeds of mono- and dicotyledonous weed plants are placed in plastic pots in sandy loam soil (twin sowing with one species each of mono- or dicotyledonous weed plants per pot), covered with soil and cultivated in a greenhouse under controlled growth conditions. 2 to 3 weeks after sowing, the test plants are treated at the one-leaf stage. The compounds of the invention, formulated in the form of wettable powders (WP) or as emulsion concentrates (EC), are applied to the green parts of the plants as aqueous suspension or emulsion with addition of 0.5% additive at a water application rate equivalent to 600 litres per hectare. After the test plants have been kept in the greenhouse under optimum growth conditions for about 3 weeks, the activity of the preparations is rated visually in comparison to untreated controls. For example, 100% activity=the plants have died, 0% activity=like control plants. As shown by the results, compounds of the general formula (I) of the invention, in post-emergence treatment, have very good herbicidal efficacy (90% to 100% herbicidal action) against harmful plants such as Abutilon theophrasti, Digitaria sanguinalis, Echinochloa crus-galli, Matricaria inodora, Poa annua, at an application rate of 1.28 kg of active substance per hectare.

[17] = test system: MATIN; test: Post-emergence action against MATIN, 1.28 kg/ha; assay type: in vivo, Tripleurospermum inodorum (Matricaria inodora); details: dosage 1280 g/ha, visual rating about 3 weeks after treatment vs untreated controls (100% = plants died)
In short: as §2

[18] = test system: VERPE; test: Post-emergence action against VERPE, 1.28 kg/ha; assay type: in vivo, Veronica persica; details: dosage 1280 g/ha, visual rating about 3 weeks after treatment vs untreated controls (100% = plants died)
In short: as §2

[19] = test system: ALOMY; test: Pre-emergence action against ALOMY, 1280 g/ha; assay type: in vivo, Alopecurus myosuroides; details: visual scoring after about 3 weeks vs untreated controls, 100% = plants have died, 0% = like control plants
In short: as §1

[20] = test system: LOLRI; test: Post-emergence action against LOLRI, 1.28 kg/ha; assay type: in vivo, Lolium rigidum; details: dosage 1280 g/ha, visual rating about 3 weeks after treatment vs untreated controls
Procedure: as §3

[21] = test system: STEME; test: Post-emergence action against STEME, 1.28 kg/ha; assay type: in vivo, Stellaria media; details: dosage 1280 g/ha, visual rating about 3 weeks after treatment vs untreated controls (100% = plants died)
In short: as §2

[22] = test system: ABUTH; test: Post-emergence action against ABUTH, 1.28 kg/ha; assay type: in vivo, Abutilon theophrasti; details: dosage 1280 g/ha, visual rating about 3 weeks after treatment vs untreated controls (100% = plants died)
In short: as §2

Row | SMILES | Pre-emergence action against DIGSA [1] [%] | Pre-emergence action against ECHCG [2] [%] | Pre-emergence action against LOLRI [3] [%] | Pre-emergence action against POAAN [4] [%] | Pre-emergence action against SETVI [5] [%] | Pre-emergence action against AMARE [6] [%] | Pre-emergence action against MATIN [7] [%] | Pre-emergence action against STEME [8] [%] | Pre-emergence action against VERPE [9] [%] | Post-emergence action against ALOMY [10] [%] | Post-emergence action against DIGSA [11] [%] | Post-emergence action against ECHCG [12] [%] | Post-emergence action against POAAN [13] [%] | Post-emergence action against SETVI [14] [%] | Post-emergence action against AMARE [15] [%] | Post-emergence action against KCHSC [16] [%] | Post-emergence action against MATIN [17] [%] | Post-emergence action against VERPE [18] [%] | Pre-emergence action against ALOMY [19] [%] | Post-emergence action against LOLRI [20] [%] | further results
1 | COC(=O)CNC(=O)COc1nn(-c2ccccc2F)c(-c2ccnc(F)c2)c1Br [VIII-009] | 100 | 100 | 90 | 100 | 100 | 100 | 100 | 100 | 100 | 100 | 100 | 100 | 100 | 90 | 90 | 90 | 90 | 100 |  |  | 
2 | COC(=O)COc1nn(-c2cc(F)ccc2F)c(-c2ccnc(F)c2)c1Br [VIII-010] | 100 | 100 | 100 | 100 | 100 | 100 | 100 | 100 | 100 | 100 | 100 | 100 | 100 | 100 | 100 | 90 | 100 | 90 | 100 | 100 | Post-emergence action against STEME [21]: 100%
3 | CONC(=O)COc1nn(-c2ccccc2F)c(-c2ccc(F)nc2)c1Br [VII-068] | 100 | 100 | 100 | 100 | 100 | 100 | 100 | 100 | 100 | 100 | 100 | 100 | 100 | 90 | 100 | 90 | 90 | 100 | 100 | 100 | Post-emergence action against ABUTH [22]: 100%
4 | CCOC(=O)COc1nn(-c2ccccc2F)c(-c2ccnnc2)c1Br [IV-001, Ethyl {[4-bromo-1-(2-fluorophenyl)-5-(pyridazin-4-yl)-1H-pyrazol-3-yl]oxy}acetate] |  |  |  |  |  |  |  |  |  | 100 |  |  |  | 100 |  | 90 |  |  |  |  | pest or weed control at 1280 g/ha ([2]; Echinochloa crus-galli, 504 h): 90%; pest or weed control at 1280 g/ha ([3]; Lolium rigidum, 504 h): 100%; pest or weed control at 1280 g/ha ([4]; Poa annua, 504 h): 100%; pest or weed control at 1280 g/ha ([5]; Setaria viridis, 504 h): 100%; pest or weed control at 1280 g/ha ([6]; Amaranthus retroflexus, 504 h): 90%; pest or weed control at 1280 g/ha ([7]; Tripleurospermum inodorum, 504 h): 90%; pest or weed control at 1280 g/ha ([8]; Stellaria media, 504 h): 90%; pest or weed control at 1280 g/ha ([12]; Echinochloa crus-galli, 504 h): 90%; pest or weed control at 1280 g/ha ([13]; Poa annua, 504 h): 100%; pest or weed control at 1280 g/ha ([18]; Veronica persica, 504 h): 90%
5 | CCOC(=O)COc1nn(-c2ccccc2F)c(-c2ccc(F)cn2)c1I [II-012] | 100 | 90 | 100 | 100 | 100 | 90 | 90 | 100 | 90 | 100 | 90 | 100 | 100 | 90 | 100 | 100 | 90 | 100 | 90 |  | Post-emergence action against ABUTH [22]: 90%
